Laboratory results taken from US11022550B2, “Method for observing organisms and associated system” (Commissariat à l'énergie atomique et aux énergies …, priority 2013, dated 2021).

Key:
Type in all cases: cell-based
[1] = system: Escherichia coli strain EC21; assay: Microcolony growth and diffraction patterns on MH2 agar with gentamycin disc gradient, strain EC21 (second experiment)
Source text: The solid substrate 16 is a MH2 agar medium. Depending on the cases, the solid substrate 16 includes an antibiotic with increasing concentration when one moves away from the center of the Petri dish. For example, such a gradient is obtained by depositing a disc impregnated with 30 micrograms (μg) of antibiotics. The disc, as an illustration, is a disc with a diameter of 6.5 mm, the reference of which is 66548 in the Biorad Corporation. When the disc is deposited at the surface of the substrate 16, an antibiotic concentration gradient is established, in the substrate 16, between the disc and the periphery of the substrate 16. In each case, the sample 12 to be studied is prepared according to the following procedure. At least one cell of the strain to be studied is cultivated on a trypticase soya gelose medium (often called TSA for <<Tryptic Soy Agar>>) for at least 24 hours. A suspension of 5 milliliters (ml) comprising water and an amount of cells of the strain such that the turbidity of the solution is equal to 0.5 McF (McFarland standard), is then prepared. The obtained suspension is diluted to 1/1000th in water in a single step. In the relevant experiments, […] are poured into […]. A volume of 70 μl of the thereby obtained diluted suspension is then spread out by means of a rake on the solid MH2 agar substrate 16. Such a volume corresponds to the spreading of approximately 1,000 to 1,500 colonies on the solid substrate 16. In the case when the experiment is conducted with a solid substrate 16 comprising the antibiotic gradient, the disc is applied immediately after the spreading step. The whole of the sample 12 is then incubated for six hours at a temperature of 37° C. (Celsius). After these six hours, the observation system 10 is used for applying a method for observing the cells of the sample 12. For the second experiment, the same experiment is conducted as the first experiment, by replacing the cells of the strain EC10 with cells of the strain EC21. […]

[2] = system: Escherichia coli strain EC10; assay: Microcolony growth and diffraction patterns on MH2 agar with gentamycin disc gradient, strain EC10 (first and third experiments)
Source text: The solid substrate 16 is a MH2 agar medium. Depending on the cases, the solid substrate 16 includes an antibiotic with increasing concentration when one moves away from the center of the Petri dish. For example, such a gradient is obtained by depositing a disc impregnated with 30 micrograms (μg) of antibiotics. The disc, as an illustration, is a disc with a diameter of 6.5 mm, the reference of which is 66548 in the Biorad Corporation. When the disc is deposited at the surface of the substrate 16, an antibiotic concentration gradient is established, in the substrate 16, between the disc and the periphery of the substrate 16. In each case, the sample 12 to be studied is prepared according to the following procedure. At least one cell of the strain to be studied is cultivated on a trypticase soya gelose medium (often called TSA for <<Tryptic Soy Agar>>) for at least 24 hours. A suspension of 5 milliliters (ml) comprising water and an amount of cells of the strain such that the turbidity of the solution is equal to 0.5 McF (McFarland standard), is then prepared. The obtained suspension is diluted to 1/1000th in water in a single step. In the relevant experiments, […] are poured into […]. A volume of 70 μl of the thereby obtained diluted suspension is then spread out by means of a rake on the solid MH2 agar substrate 16. Such a volume corresponds to the spreading of approximately 1,000 to 1,500 colonies on the solid substrate 16. In the case when the experiment is conducted with a solid substrate 16 comprising the antibiotic gradient, the disc is applied immediately after the spreading step. The whole of the sample 12 is then incubated for six hours at a temperature of 37° C. (Celsius). After these six hours, the observation system 10 is used for applying a method for observing the cells of the sample 12. For the first experiment, the studied organisms belong to the EC10 strain and the solid substrate 16 comprises a gentamycin gradient. A first colony of cells of the EC10 strain of the sample 12 is illuminated with the laser beam emitted by the laser source 20. The center of this colony is found at a distance of 13.5 millimeters (mm) from the center of the disc, in an area with low gentamycin concentration, since it is sufficiently far from the disc. For the third experiment, a large number of diffraction patterns is acquired (about 100) for solid substrates 16 with and without gentamycin. The studied organism is a cell from the EC10 strain.

[3] = system: Escherichia coli ATCC 35421 (strain EC21); assay: E-test minimum inhibitory concentration, resistant strain EC21
Source text: The principle of the E-test® is based on the combination of both concepts: Dilution and diffusion. The system E-test® comprises a non-porous plastic strip calibrated by a pre-established gradient of antibiotic concentration covering 15 dilutions for determining the MIC in μg/ml of a strain tested in a gelose medium.
The resistant strain is of the Escherichia coli species of ATCC number 35421. In the continuation of the description, the resistant strain is noted as EC21.
This measurement was obtained by conducting an E-test®.

[4] = system: Escherichia coli ATCC 259922 (strain EC10); assay: E-test minimum inhibitory concentration, sensitive strain EC10
Description: The sensitive strain is of the Escherichia coli species with the ATCC number of 259922. In the continuation of the description, the sensitive strain is noted as EC10. The minimum inhibitory concentration of the strain EC10 amounts to 1.0 μg/ml. In microbiology, the minimum inhibitory concentration (also noted with the acronym MIC) is the lowest concentration of antimicrobial agent which inhibits visible growth of an organism after one night of incubation. The value of 1.0 μg/ml for the minimum inhibitory concentration was obtained by conducting an E-test®. The principle of the E-test® is based on the combination of both concepts: Dilution and diffusion. The system E-test® comprises a non-porous plastic strip calibrated by a pre-established gradient of antibiotic concentration covering 15 dilutions for determining the MIC in μg/ml of a strain tested in a gelose medium.

## gentamycin
[1]; 7.29, 6.63, 5.53 and 4.37 mm from center of 30 μg disc, 6 h incubation at 37° C.
  maximum extension of each observed colony: ~90 μm
[1]; diffraction patterns substantially identical at increasing gentamycin concentration
  sensitivity of organism from comparison of diffraction patterns: resistant
[1]; gentamycin gradient on MH2 agar
  effect on growth of the organisms: no effect on the growth
[2]; 5.0 mm from center of 30 μg disc, 6 h incubation at 37° C.
  maximum size of colony in direct space: about 15 μm
[2]; 8.3 mm from center of 30 μg disc, 6 h incubation at 37° C.
  maximum size of colony in direct space: about 30 μm
[2]; 9.1 mm from center of 30 μg disc, 6 h incubation at 37° C.
  maximum size of colony in direct space: about 50 μm
[2]; 13.5 mm from center of 30 μg disc, 6 h incubation at 37° C.
  colony diameter in direct space: about 60 μm
[2]; about 100 diffraction patterns, with and without gentamycin, first main component smaller at larger concentration
  sensitivity of organism from main component analysis of diffraction patterns: sensitive
[3]
  minimum inhibitory concentration (MIC): greater than 256 μg/ml
[4]
  minimum inhibitory concentration (MIC): 1.0 mg/L
